Legend:
LXRβ protein = target: T1, LXRβ protein (Homo sapiens, UniProt P55055); conditions: 1 μM; over a background reading of 10000 fluorescence units; cited from earlier work
T1 sequence (P55055 1-460): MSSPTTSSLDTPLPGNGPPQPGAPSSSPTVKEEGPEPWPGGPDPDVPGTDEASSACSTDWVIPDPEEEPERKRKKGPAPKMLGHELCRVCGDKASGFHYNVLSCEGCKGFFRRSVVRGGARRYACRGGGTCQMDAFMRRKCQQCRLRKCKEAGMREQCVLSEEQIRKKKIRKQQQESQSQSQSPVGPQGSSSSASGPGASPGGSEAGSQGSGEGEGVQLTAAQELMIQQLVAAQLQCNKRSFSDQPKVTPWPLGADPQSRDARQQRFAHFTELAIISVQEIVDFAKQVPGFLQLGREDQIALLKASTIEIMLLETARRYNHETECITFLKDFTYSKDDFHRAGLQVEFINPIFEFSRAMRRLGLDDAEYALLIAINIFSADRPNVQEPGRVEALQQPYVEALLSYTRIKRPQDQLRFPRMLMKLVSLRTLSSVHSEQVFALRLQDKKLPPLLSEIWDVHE

[1] = system: LV mass (cardiac hypertrophy) of aorta-constricted CD-1 mice; assay: Effect on LV mass in aorta-constricted mice (Example 3); type: in vivo
Method: Male CD-1 mice (n=7 per group), 20-25 g in weight, were used for the experiment. Each mouse was anaesthetized with isoflurane 1-2%. Each mouse's aorta was exposed between the two renal arteries and was surgically constricted using a 30-gauge needle and 6.0 suture to induce heart growth. Seven days after surgery, baseline echocardiography was performed on each mouse to establish left ventricular mass (“LV mass”). Enalapril, the gold standard in treating cardiac hypertrophy, was orally administered to the mice at the dose of 10 mg/kg beginning on day 11 (4 days after baseline) and was continued once daily for 10 days. The compound of Formula IIa was suspended in 0.5% methylcellulose (MC) solution (vehicle) and was orally administered to the mice at the doses of 10 mg/kg twice a day, beginning on day 11. The control group was administered with vehicle (0.5% MC) beginning on day 11. Repeat echocardiography was conducted on each mouse 14 and 21 days after surgery.

[2] = system: LV mass (cardiac hypertrophy) of aorta-constricted CD-1 mice; assay: Effect on LV mass in aorta-constricted mice, dose range (Example 4); type: in vivo; design: unit not given here
Method: Male CD-1 mice (n=7 per group), 20-25 g in weight, were used for the experiment. Each mouse was anaesthetized with isoflurane 1-2%. Each mouse's aorta was exposed between the two renal arteries and was surgically constricted using a 30-gauge needle and 6.0 suture to induce heart growth. Seven days after surgery, baseline echocardiography was performed on each mouse to establish left ventricular mass (“LV mass”). Enalapril was orally administered to the mice at the dose of 10 mg/kg beginning on day 11 (4 days after baseline) and was continued once daily for 10 days. Formula IIa, suspended in 0.5% MC (vehicle), was orally administered to the mice at the doses of 3.0 mg/kg, 10 mg/kg, or 30 mg/kg once a day beginning on day 11. Formula Ia, suspended in 0.5% MC (vehicle), was orally administered to the mice at the dose of 50 mg/kg once a day beginning on day 11. The control group was administered with vehicle (0.5% MC). Repeat echocardiography was conducted on each mouse 14 and 21 days after surgery.

For `C[C@H](CC[C@@H]1OC1(C)C)[C@H]1CC[C@H]2[C@@H]3CC=C4C[C@@H](O)CC[C@]4(C)[C@H]3CC[C@]12C` [24(S), 25-epoxycholesterol], the “reading (fluorescence)” value (LXRβ protein) is given as 20000 fluorescence units.
In the case of `CCOC(=O)[C@H](CCc1ccccc1)N[C@@H](C)C(=O)N1CCC[C@H]1C(=O)O` [Enalapril, reference compound], the “Mean ± SE LV Mass” value ([1]; 10 mg/kg once daily oral from day 11, 14 days after surgery) is reported as 84.90 ± 1.11, the “LV Mass compared to vehicle” value ([1]; 10 mg/kg once daily oral, days 14 and 21, p<0.05) is reported as “significantly (p<0.05) reduced LV Mass” and the “LV Mass compared to baseline hypertrophy (reversal of pathology)” value ([1]; 10 mg/kg once daily oral, p<0.05) is reported as “significantly (p<0.05) reversed the pathology”. For the same molecule, the “Mean ± SE LV Mass” value ([1]; Enalapril group 10 mg/kg once daily oral, 7 days after surgery (baseline, before dosing from day 11)) was 94.09 ± 1.950, the “Mean ± SE LV Mass” value ([2]; Enalapril 10 mg/kg once daily oral from day 11, 14 days after surgery) was 95.1 ± 3.90 and the “Mean ± SE LV Mass” value ([2]; Enalapril 10 mg/kg once daily oral from day 11, 21 days after surgery) was 91.4 ± 2.48. For the same molecule, the “Mean ± SE LV Mass” value ([2]; Enalapril group 10 mg/kg once daily oral, 7 days after surgery (baseline, before dosing)) was 101.02 ± 2.79.
For `O=C(O)Cc1cccc(OCCCN(Cc2cccc(C(F)(F)F)c2Cl)CC(c2ccccc2)c2ccccc2)c1` [Formula IIa, 2-(3-{3-[[2-Chloro-3-(Trifluoromethyl)Benzyl](2,2-Diphenylethyl)Amino]Propoxy}-Phenyl)Acetic Acid], the “Mean ± SE LV Mass” value ([1]; 10 mg/kg BID oral from day 11, 14 days after surgery) was 99.45 ± 1.98, the “Mean ± SE LV Mass” value ([1]; 10 mg/kg BID oral from day 11, 21 days after surgery) was 100.66 ± 2.43 and the “further increase in LV Mass” value ([1]; 10 mg/kg b.i.d. oral) was “prevented any further increase in LV Mass”. The “LV Mass compared to vehicle” value ([1]; 10 mg/kg b.i.d. oral, 14 and 21 days after surgery, p<0.05) was “statistically significant reduction”, the “Mean ± SE LV Mass” value ([1]; Formula IIa group 10 mg/kg BID oral, 7 days after surgery (baseline, before dosing from day 11)) was 100.88 ± 2.77 and the “Mean ± SE LV Mass” value ([2]; 3 mg/kg once a day oral from day 11, 14 days after surgery) was 106.75 ± 2.43. For the same molecule, the “Mean ± SE LV Mass” value ([2]; 3 mg/kg once a day oral from day 11, 21 days after surgery) was 106.54 ± 2.56, the “Mean ± SE LV Mass” value ([2]; 3 mg/kg once a day oral group, 7 days after surgery (baseline, before dosing)) was 98.9 ± 4.59 and the “Mean ± SE LV Mass” value ([2]; 10 mg/kg once a day oral from day 11, 14 days after surgery) was 96.31 ± 2.70. The “Mean ± SE LV Mass” value ([2]; 10 mg/kg once a day oral from day 11, 21 days after surgery) was 95.5 ± 2.97, the “Mean ± SE LV Mass” value ([2]; 10 mg/kg once a day oral group, 7 days after surgery (baseline, before dosing)) was 98.01 ± 2.39 and the “Mean ± SE LV Mass” value ([2]; 30 mg/kg once a day oral from day 11, 14 days after surgery) was 101.77 ± 2.25. The “Mean ± SE LV Mass” value ([2]; 30 mg/kg once a day oral from day 11, 21 days after surgery) was 101.99 ± 4.00 and the “Mean ± SE LV Mass” value ([2]; 30 mg/kg once a day oral group, 7 days after surgery (baseline, before dosing)) was 102.42 ± 2.27.
For `O=S(=O)(c1ccccc1)N(CC(F)(F)F)c1ccc(C(O)(C(F)(F)F)C(F)(F)F)cc1` [Formula Ia, N-(2,2,2-Trifluoroethyl)-N-[4-(2,2,2-Trifluoro-1-Hydroxy-1-Trifluoromethyl-Ethyl)-Phenyl]-Benzenesulfonamide], the “Mean ± SE LV Mass” value ([2]; 50 mg/kg once a day oral from day 11, 14 days after surgery) was 106.56 ± 3.86 and the “Mean ± SE LV Mass” value ([2]; 50 mg/kg once a day oral group, 7 days after surgery (baseline, before dosing)) was 101.85 ± 4.75.
